According to US20220163539A1, “NLRP3 INFLAMMASOME INHIBITION” (Inflazome Limited, priority 2019, published 2022):

Legend:
[1] = target: T1, NLRP3 in NLRP3 over-expressing HEK293 cell lysate supernatants (Homo sapiens, UniProt Q96P20); experiment: Radioligand binding assay with [3H]-MCC7840, gel filtration; details: 200 nM [3H]-MCC7840, 700 μg protein, 4 hrs at RT; minimum of curve fit constrained; read-out: estimated IC50, competition with [3H]-MCC7840
T1 construct: expressed in transfected cells; host or cells: HEK293
T1 sequence (Q96P20 whole entry): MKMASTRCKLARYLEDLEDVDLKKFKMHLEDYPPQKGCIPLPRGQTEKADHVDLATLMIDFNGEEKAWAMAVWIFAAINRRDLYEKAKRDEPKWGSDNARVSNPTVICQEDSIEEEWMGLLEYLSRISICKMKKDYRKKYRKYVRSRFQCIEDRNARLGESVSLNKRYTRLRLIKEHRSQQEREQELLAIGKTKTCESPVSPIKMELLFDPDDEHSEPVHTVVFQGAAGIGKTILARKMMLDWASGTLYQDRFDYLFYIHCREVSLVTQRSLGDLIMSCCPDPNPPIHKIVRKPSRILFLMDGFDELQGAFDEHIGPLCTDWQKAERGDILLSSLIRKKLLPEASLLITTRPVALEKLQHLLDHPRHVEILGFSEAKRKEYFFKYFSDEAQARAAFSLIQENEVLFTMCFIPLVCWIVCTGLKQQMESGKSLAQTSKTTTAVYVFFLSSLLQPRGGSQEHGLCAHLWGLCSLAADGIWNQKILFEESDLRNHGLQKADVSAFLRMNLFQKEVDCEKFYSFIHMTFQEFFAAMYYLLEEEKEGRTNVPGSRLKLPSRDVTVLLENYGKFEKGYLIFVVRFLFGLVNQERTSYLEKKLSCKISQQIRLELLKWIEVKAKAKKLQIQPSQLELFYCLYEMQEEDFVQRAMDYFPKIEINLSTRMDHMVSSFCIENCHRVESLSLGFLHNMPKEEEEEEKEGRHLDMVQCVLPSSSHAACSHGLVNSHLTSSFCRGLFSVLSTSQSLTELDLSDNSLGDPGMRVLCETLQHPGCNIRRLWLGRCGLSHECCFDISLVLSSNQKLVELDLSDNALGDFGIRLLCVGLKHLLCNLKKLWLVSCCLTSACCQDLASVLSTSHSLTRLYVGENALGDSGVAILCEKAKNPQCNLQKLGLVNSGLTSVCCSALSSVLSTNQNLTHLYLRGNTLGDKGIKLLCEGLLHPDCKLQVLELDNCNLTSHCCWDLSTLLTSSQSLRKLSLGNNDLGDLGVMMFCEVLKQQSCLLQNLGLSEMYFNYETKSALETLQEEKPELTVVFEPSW
Description: As NLRP3 is a cytoplasmic protein a conventional filtration binding assay method could not be used to separate free vs bound radiolabel from cell lysates.
Cell pellets were defrosted over ice and diluted one in two with binding buffer. […] Supernatant was removed and stored at −20° C. Protein determination was performed on these samples using the Pierce BCA kit following the manufacturer's instructions.
Binding buffer volume was dependent on the volume of supernatant used in the assay. Samples were combined together and incubated, with shaking, for 4 hrs @ room temperature.
Briefly, the PD MultiTrap plates were spun down at room temperature (RT), 800 g, for 1 minute to remove the storage buffer. They were washed five times with 300 μl/well binding buffer, 800 g, RT for 1 minute.
80 μl of sample was added per well, spun down at 400 g for 1 minute. 50 μl of the flow through was added to 145 μl Microscint-20 in Optiplates. The plate was shaken for approximately 30 minutes at RT prior to reading in a Perkin Elmer TopCount. Data was analysed using GraphPad Prism.
The specific binding was determined by subtracting the non-specific binding from the total binding.

[2] = system: IL-1β release from THP-1 cells; experiment: IL-1β release assay in THP-1 cells (LPS and nigericin stimulation); details: Homo sapiens, THP-1, read-out: IC50 for inhibition of release of IL-1β from THP-1 cells

Row | IC50 [2] [µM] | Structure (SMILES) | IC50 [1] [µM]
1 | – | Nc1ncnc2c1ncn2[C@@H]1O[C@H](COP(=O)(O)OP(=O)(O)OP(=O)(O)O)[C@@H](O)[C@H]1O [ATP] | 75000
2 | 0.11 | CC(C)n1ccc(S(=O)(=O)NC(=O)Nc2c3c(cc4c2CCC4)CCC3)n1 [MCC7840] | –
3 | 0.027 | CC(C)(O)c1coc(S(=O)(=O)NC(=O)Nc2c3c(cc4c2CCC4)CCC3)c1 [MCC950] | –
